{"source": "patent US20230114264A1", "about": "“ACTIVATION OF LYTIC GENES IN CANCER CELLS” (priority 2020, published 2023)", "tested_on": "BGLF4", "assay": "BGLF4 gRNA transfection into C666-1 cells, Western blotting", "assay_type": "cell-based, Epstein-Barr virus (EBV)", "details": "FIG. 12B", "method": "BGLF4 gRNAs were tested for triggering EBV reactivation in C666-1 cells expressing HA-dCas9-EGFP and 3×FLAG-pUFa-p65HSF1. Seven EBV genomic loci at the BGLF4 promoter were used to design the gRNAs for BGLF4 induction (gRNA (1), gRNA (2), gRNA (3), gRNA (4), gRNA (5), gRNA (6), and gRNA (7)). Individual BGLF4 gRNAs were transfected into cells and the induction of BGLF4 protein expression was studied by Western blotting. […] To study the combination effects of BGLF4 gRNAs, BGLF4 gRNAs were transfected into cells individually or in combination. […] As a positive control of EBV reactivation, the C666-1 cells were treated with the chemical inducer Gemcitabine to trigger EBV reactivation.", "data": [{"smiles": "Nc1ccn([C@@H]2O[C@H](CO)[C@@H](O)C2(F)F)c(=O)n1", "note": "[Gemcitabine]", "values": [{"measurement": "EBV reactivation (BZLF1 expression)", "result": "implied the trigger of EBV reactivation"}]}]}
